According to US20220135622A1, “ANTIBACTERIAL PEPTIDES AND METHODS OF USE” (priority 2019, published 2022):
Converted amounts (≈) assume the structure as drawn. Where two headings read alike, the source gives them in different places. Square brackets hold non-standard residues; d marks the D form. Peptide text beside a SMILES is read from it. aThr = C[C@H](O)[C@H](N)C(=O)O; hSer = N[C@@H](CCO)C(=O)O; NMeA = CN[C@@H](C)C(=O)O; Nle = CCCC[C@H](N)C(=O)O; Orn = NCCC[C@H](N)C(=O)O; Dap = NC[C@H](N)C(=O)O

Tests used:
E. coli BW25113 = type: cell-based, Escherichia coli
How it was run: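 Growth inhibition: log-phase cells (OD600 ~0.001), peptides in 2-fold series up to 400–800 μM in MHB II, EDTA 0.5 mM (E. coli) or 0.125 mM (USA300), 4 h at 37 °C, ATP luminescence readout. MICs: inoculum at OD600 ~0.0002, with or without EDTA, 20 h at 37 °C, OD600 endpoint.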

S. aureus USA300 = assay: MIC assay, S. aureus USA300; type: cell-based, Staphylococcus aureus; conditions: Table 7
Description: (§1) Bacterial growth conditions. LB or Mueller Hinton II cation-adjusted broth (MHB II, BBL 212322) was prepared according to manufacturer's instructions and supplemented with arabinose at 0.02% for overnight growth or at indicated concentrations in the description of the figures. Bacterial cultures were grown at 37° C. When appropriate, media was supplemented with kanamycin (50 μg/mL), carbenicillin (50 μg/mL), chloramphenicol (12.5 or 25 μg/mL), hygromycin (200 μg/mL), and/or gentamicin (10 μg/mL).
(§2) Peptide sensitivity and MIC assays. Lyophilized peptides (Smartox Biotechnology, CPC Scientific. ABclonal) were solubilized to 10 mM in Tris buffer, pH 8, prior to making a 2-fold dilution series in MHBII cation adjusted broth with highest final assay concentration of 400-800 μM. Bacteria were grown to log phase and added to final OD600˜0.001. The final EDTA concentration was 0.5 mM for E. coli strains and 0.125 mM for USA300. The final volume of 10 μL/well in a 384 well black, clear bottom plate (Corning) was spun <1 min at <250×g and then incubated at 37° C. After 4 h, an equal volume (10 μL) of BacTiter-Glo™ (Promega) was added to each well and luminescence was read after 5 min on an EnVision plate reader (PerkinElmer). To measure the minimal inhibitory concentrations (MICs), bacteria from fresh overnight plates or log phase cultures were diluted with or without EDTA and peptides as described above to final OD600˜0.0002. Plates were incubated at 37° C. for 20 h before measuring OD600 with an EnVision plate reader.

E. coli imp4213 = assay: MIC assay, E. coli imp4213; type: cell-based, Escherichia coli; conditions: Table 7
Description: as §1, §2

K. pneumoniae = type: cell-based, Klebsiella pneumoniae
Description: as §1, §2

A. baumannii = type: cell-based, Acinetobacter baumannii
Description: as §1, §2

P. aeruginosa = type: cell-based, Pseudomonas aeruginosa
Description: as §1, §2

E. coli ΔwaaD MCR-1 = assay: MIC assay, E. coli ΔwaaD MCR-1; type: cell-based, Escherichia coli; conditions: Table 7
Description: as §1, §2

E. coli ΔwaaD + vect. = assay: MIC assay, E. coli ΔwaaD + vect.; type: cell-based, Escherichia coli; conditions: Table 7
Description: as §1, §2

| Compound | MIC E. coli BW25113 (E. coli BW25113; Table 8) | MIC S. aureus USA300 (S. aureus USA300) | MIC E. coli imp4213 (E. coli imp4213) | MIC K. pneumoniae (K. pneumoniae; Table 8) | MIC A. baumannii (A. baumannii; Table 8) | MIC R. aeruginosa (P. aeruginosa; Table 8) | MIC E coli ΔwaaD − MCR1 (E. coli ΔwaaD MCR-1) | MIC E. coli ΔwaaD + vect. (E. coli ΔwaaD + vect.) | MIC E. coli BW25113 (E. coli BW25113; BW25113) | MIC K. pneumoniae (K. pneumoniae) | MIC A. baumannii (A. baumannii) | MIC R. aeruginosa (P. aeruginosa) |
| --- | --- | --- | --- | --- | --- | --- | --- | --- | --- | --- | --- | --- |
| CSCC[C@H](NC(=O)[C@@H]1CCCN1C(=O)[C@H](Cc1ccc(O)cc1)NC(C)=O)C(=O)N[C@H](C(=O)N[C@@H](C)C(=O)N[C@@H](CCCNC(=N)N)C(=O)N[C@@H](CCCNC(=N)N)C(=O)N[C@@H](Cc1ccccc1)C(=O)N[C@@H](CC(C)C)C(=O)N[C@@H](CCC(=O)O)C(=O)N[C@@H](CCCCN)C(=O)N[C@@H](Cc1c[nH]c2ccccc12)C(=O)NCC(=O)N[C@@H](CC(C)C)C(=O)N[C@@H](CC(C)C)C(=O)N[C@@H](CCCNC(=N)N)C(N)=O)[C@H](C)O [compound 48] (Ac-YPM[aThr]ARRFLEKWGLLR-NH2) | 400 µM (≈ 831 µg/mL) | >400 µM | 17.5 µM (≈ 36.4 µg/mL) | 400 µM (≈ 831 µg/mL) | 200 µM (≈ 416 µg/mL) | 400 µM (≈ 831 µg/mL) | 400 µM (≈ 831 µg/mL) | 100 µM | – | – | – | – |
| CSCC[C@H](NC(=O)[C@@H]1CCCN1C(=O)[C@H](Cc1ccc(O)cc1)NC(C)=O)C(=O)N[C@@H](CN)C(=O)N[C@@H](C)C(=O)N[C@@H](CCCNC(=N)N)C(=O)N[C@@H](CCCNC(=N)N)C(=O)N[C@@H](Cc1ccccc1)C(=O)N[C@@H](CC(C)C)C(=O)N[C@@H](CCC(=O)O)C(=O)N[C@@H](CCCCN)C(=O)N[C@@H](Cc1c[nH]c2ccccc12)C(=O)NCC(=O)N[C@@H](CC(C)C)C(=O)N[C@@H](CC(C)C)C(=O)N[C@@H](CCCNC(=N)N)C(N)=O [compound 51] (Ac-YPM[Dap]ARRFLEKWGLLR-NH2) | 100 µM (≈ 206 µg/mL) | >400 µM | 12.5 µM (≈ 25.8 µg/mL) | 200 µM (≈ 413 µg/mL) | 100 µM (≈ 206 µg/mL) | 400 µM (≈ 825 µg/mL) | 200 µM (≈ 413 µg/mL) | 100 µM | – | – | – | – |
| CSCC[C@H](NC(=O)[C@@H]1CCCN1C(=O)[C@H](Cc1ccc(O)cc1)NC(C)=O)C(=O)N[C@H](C(=O)N[C@@H](C)C(=O)N[C@@H](CCCN)C(=O)N[C@@H](CCCNC(=N)N)C(=O)N[C@@H](Cc1ccccc1)C(=O)N[C@@H](CC(C)C)C(=O)N[C@@H](CCC(=O)O)C(=O)N[C@@H](CCCCN)C(=O)N[C@@H](Cc1c[nH]c2ccccc12)C(=O)NCC(=O)N[C@@H](CC(C)C)C(=O)N[C@@H](CC(C)C)C(=O)N[C@@H](CCCNC(=N)N)C(N)=O)[C@@H](C)O [compound 53] (Ac-YPMTA[Orn]RFLEKWGLLR-NH2) | 400 µM (≈ 815 µg/mL) | >400 µM | – | 800 µM (≈ 1630 µg/mL) | 400 µM (≈ 815 µg/mL) | 400 µM (≈ 815 µg/mL) | 400 µM (≈ 815 µg/mL) | 100 µM | – | – | – | – |
| CCCC[C@H](NC(=O)[C@@H]1CCCN1C(=O)[C@H](Cc1ccc(O)cc1)NC(C)=O)C(=O)N[C@H](C(=O)N[C@@H](C)C(=O)N[C@@H](CCCNC(=N)N)C(=O)N[C@@H](CCCNC(=N)N)C(=O)N[C@@H](Cc1ccccc1)C(=O)N[C@@H](CC(C)C)C(=O)N[C@@H](CCC(=O)O)C(=O)N[C@@H](CCCCN)C(=O)N[C@@H](Cc1c[nH]c2ccccc12)C(=O)NCC(=O)N[C@@H](CC(C)C)C(=O)N[C@@H](CC(C)C)C(=O)N[C@@H](CCCNC(=N)N)C(N)=O)[C@@H](C)O [compound 62] (Ac-YP[Nle]TARRFLEKWGLLR-NH2) | 400 µM (≈ 824 µg/mL) | – | – | 200 µM (≈ 412 µg/mL) | 200 µM (≈ 412 µg/mL) | 200 µM (≈ 412 µg/mL) | 200 µM (≈ 412 µg/mL) | <6.25 µM | – | – | – | – |
| CSCC[C@H](NC(=O)[C@@H]1CCCN1C(=O)[C@H](Cc1ccc(O)cc1)NC(C)=O)C(=O)N[C@@H](CCO)C(=O)N[C@@H](C)C(=O)N[C@@H](CCCNC(=N)N)C(=O)N[C@@H](CCCNC(=N)N)C(=O)N[C@@H](Cc1ccccc1)C(=O)N[C@@H](CC(C)C)C(=O)N[C@@H](CCC(=O)O)C(=O)N[C@@H](CCCCN)C(=O)N[C@@H](Cc1c[nH]c2ccccc12)C(=O)NCC(=O)N[C@@H](CC(C)C)C(=O)N[C@@H](CC(C)C)C(=O)N[C@@H](CCCNC(=N)N)C(N)=O [compound 63] (Ac-YPM[hSer]ARRFLEKWGLLR-NH2) | 400/200 | – | – | 200 µM (≈ 416 µg/mL) | 200 µM (≈ 416 µg/mL) | 400 µM (≈ 831 µg/mL) | 200 µM (≈ 416 µg/mL) | <6.25 µM | – | – | – | – |
| CSCC[C@H](NC(=O)[C@@H]1CCCN1C(=O)[C@H](Cc1ccc(O)cc1)NC(C)=O)C(=O)N[C@H](C(=O)N(C)[C@@H](C)C(=O)N[C@@H](CCCNC(=N)N)C(=O)N[C@@H](CCCNC(=N)N)C(=O)N[C@@H](Cc1ccccc1)C(=O)N[C@@H](CC(C)C)C(=O)N[C@@H](CCC(=O)O)C(=O)N[C@@H](CCCCN)C(=O)N[C@@H](Cc1c[nH]c2ccccc12)C(=O)NCC(=O)N[C@@H](CC(C)C)C(=O)N[C@@H](CC(C)C)C(=O)N[C@@H](CCCNC(=N)N)C(N)=O)[C@@H](C)O [compound 64] (Ac-YPMT[NMeA]RRFLEKWGLLR-NH2) | 400 µM (≈ 837 µg/mL) | – | 12.5 µM (≈ 26.2 µg/mL) | None/400 | 400 µM (≈ 837 µg/mL) | 400 µM (≈ 837 µg/mL) | 400 µM (≈ 837 µg/mL) | <6.25 µM | – | – | – | – |
| Ac-RPMTARRWLAKRGL-NH2 [compound 201] | – | – | – | – | – | – | – | – | 25.0 µM | >400.0 µM | >400.0 µM | >400.0 µM |
| Ac-RPMTARRWLEKRGL-NH2 [compound 202] | 50.0 µM | – | – | >400.0 µM | >400.0 µM | >400.0 µM | – | – | – | – | – | – |
